In patent US20050014144A1, “Methods” (priority 2001, published 2005):

Tests used:
[1] = tested on: Pythium aphanidermatum; assay: Azoxystrobin sensitivity of P. aphanidermatum isolates on treated perennial ryegrass turf (percent infected turf area); assay type: in vivo
Method: To enable an assessment of axoxystrobin (strobilurin) resistance of the above isolates, perennial ryegrass (Lolium perenne L.) was grown in 4×4 inch square plastic pots containing sandy soil. Agsorb absorbent clay (extra fine red) was used to anchor the seeds and provide a high level of moisture around the seed to aid germination. The pots were watered using a fog nozzle and covered with paper to reduce evaporation. A fog nozzle was used 3-5 times a day to water the turf pots. When seedlings emerged, the paper cover was removed from the pots to prevent etiolation and watering was reduced to twice daily using a fan nozzle. The pots were maintained for 12-16 days in a glass-house (17-32° C.; 14 h photoperiod) prior to treatment. During this time, the turf was cut twice with electric Black and Decker hand-held clippers.
Pythium aphanidermatum cultures of the isolates summarized in FIG. 1 were maintained on potato dextrose agar (PDA) amended with streptomycin sulfate at 0.05 g/L. Organically grown rye grains (50 g) were hydrated overnight with 40 ml deionized water placed in 250 ml plastic (polyvinyl-chloride) flasks. The flasks were autoclaved twice on successive days for 45 minutes each time. After the berries cooled, ten 1×1 cm agar plugs of P. aphanidermatum were added to each flask. Flasks containing infected rye-berries were incubated in a growth chamber (26° C.; 14 h photoperiod) for seven days to allow the fungi to colonize the rye grains. The fungal-colonized rye grains were then used to inoculate the turf; by placing four berries on the center surface of each pot.
Azoxystrobin treatments were applied in an automated spray cabinet using a flat fan nozzle (8004E) positioned 18 inches over the turf with a spray volume of 3 US gal/1000 sq.ft. To prevent carry over from treatment to treatment, applications were made starting with the lowest concentration and ending with the highest concentration. The spray nozzle was washed once with acetone and twice with deionized water (100 ml/rinse) between treatments. Turf was sprayed with Heritage® (azoxystrobin) at rates of 0.4, 0.133, 0.044, 0.015, 0.005 and 0 oz.Heritage/1000 sq.ft. Following application, the turf was allowed to dry and was transferred to a growth chamber (25-28° C.; 14 h photoperiod) overnight.
Turf was inoculated with fungal-colonized rye-berries one day after application as previously described. All treatments were then randomized and placed in a dew chamber (25-28° C.; 14 h photoperiod) for four days. The turf was moved to a growth room 24 h prior to disease assessment. The percent of Pythium-infected turf area in each pot was assessed five days after inoculation With the exception of isolate 99-150, all the isolates of P. aphanidermatum were sensitive to azoxystrobin (Table1). […] This is the first report of resistance to azoxystrobin of an isolate of the plant pathogenic fungus P. aphanidermatum.
The sensitivity of the resistant isolate 99-150 and sensitive isolate P32R was then confirmed by testing in two separate experiments using rates up to nine times higher than the recommended commercial rate of Heritage® (azoxystrobin): 3.6, 1.2, 0.4, 0.133, 0.044, 0.015, 0.005 and 0 oz/1000 sq.ft.

[2] = tested on: Plasmopara viticola; assay: in planta dose response bioassay with azoxystrobin on vine seedlings (EC50, EC95); assay type: in vivo; conditions: for EC95: vine seedlings, azoxystrobin rates in ppm (Table 31)
Method: The in planta dose response bioassay was performed on 10 to 14 days old vine seedlings grown in 1.5″ pots. Six rates of azoxystrobin were chosen from preparatory tests, as the most suitable for showing any shifts in sensitivity to azoxystrobin in the dose response bioassay (Table 31).
The azoxystrobin preparation used for all the tests was P53, a technical grade powder with a purity of >97% azoxystrobin. This was kept consistent across all the tests to eliminate any variation caused by differences in chemical purity or physical state. Five seedlings were used per azoxystrobin rate per sample, and 10 seedlings were used for the no azoxystrobin control (sprayed with de-ionised water only).
The chemical was sprayed, with a Devilbiss spray gun at 10 psi, to maximum retention onto the adaxial surface of the 2nd true leaf (test leaf) of each seedling, with care being taken to continuously swirl the solution in the spray gun to prevent local fluctuations in azoxystrobin concentration: The seedlings were then carefully placed in a growth room (Day: 24° C., 60% RH, 4-5000 lux; Night: 17° C., 95% RH; Day length: 16 hours) for 24 hours.
After this time each test leaf was inoculated with the samples I112 and I116b. Both samples had passed through 1 cycle of subculture on 3″ vines since being removed from low temperature storage (FIG. 14). The inoculum from each sample, obtained from the 3″ vines, was diluted to 5,000 sporangia per ml using a dry haemocytometer (Improved Neubayer, depth 0.1 mm, 1/400 mm^2, Hawksley Crystallite, BS 748).
The samples were inoculated, with a Devilbiss spray gun at 10 psi, to maximum retention onto the abaxial surface of the test leaf of each seedling, with the suspension being swirled frequently in the spray gun to keep sporangia from accumulating at the bottom. The test seedlings were incubated in an ambient room for twenty-four hours. The seedlings were then randomised and placed in a growth room (Day: 24° C., 60% RH, 4-5000 lux; Night: 17° C., 95% RH; Day length: 16 hours) for 6 days, before being returned to the ambient room for a further 24 hours to stimulate sporulation.
The seedlings were assessed directly after their removal from the ambient room for the second time. Disease assessment was based on the percentage area of the leaf covered by sporulating lesions and discolouration, and recorded in 5% increments. […] The data was then analysed using the statistical program AGSTAT.

[3] = tested on: P. viticola cytochrome b gene F129 and L129 alleles; assay: ARMS/Scorpion F129L SNP detection assay (Ct of allele selective primers on plasmid DNA templates); design: species or system Plasmopara viticola
Method: In all ARMS/Scorpion F129L SNP detection assays AmpliTaq Gold enzyme (Applied Biosystems) is included in the reaction mixes at 1 unit/25 ul reaction. The reaction mix also contains 1× buffer (10 mM Tris-HCl (pH8.3), 50 mM KCl, 3.5 mM MgCl2, 0.01% gelatine) and 100 uM dNTP's (Amersham Pharmacia Biotech). Amplifications are performed in an ABI 7700 instrument for continuous fluorescence monitoring. The cycling conditions comprise a preliminary cycle of 95° C. for 10 minutes, followed by 50 cycles of 95° C. for 15 seconds and 60° C. for 45 seconds. Fluorescence is monitored during the annealing/extension stage throughout all cycles.
The ARMS primers are validated for use in such analyses by using plasmid DNA, at various concentrations as template. This is performed in order to check the specificity and sensitivity of the primer designs. Partial wild type cytochrome b gene sequence and the corresponding tract containing the F129L mutation amplified from two P. viticola samples has been cloned into the TA pCR2.1 vector (Invitrogen) as described previously in example 11. 150 ul of the bacterial culture, from the 10 transformants from each cloning event picked for Qiagen Biorobot plasmid DNA Preparations (Qiazen) (see example 11), was saved prior to carrying out these preparations and stored at 4° C. Following sequence analysis wild type and mutant plasmid DNA samples that contained no sequence differences from the consensus sequence were noted. The bacterial culture from which these wild type and mutant plasmid DNA sequences originated was picked for plasmid DNA maxipreps (Qiagen) following the manufacturers protocol. The resulting plasmid DNA was quantified and diluted to a concentration of 1 ug/ul (2×10^11 molecules/ul) using sterile double distilled H2O.
The wild type and mutant cyt b plasmid DNA constructs were diluted further to a concentration of 10 pg/ul (or 2×10^6 molecules/ul) in double distilled H2O and used as template to validate the specificity of the ARMS primers. […]

CO/C=C(/C(=O)OC)c1ccccc1Oc1cc(Oc2ccccc2C#N)ncn1 [azoxystrobin]
sensitivity of isolate to azoxystrobin (percent of Pythium-infected turf area) ([1]; P. aphanidermatum isolate 99-150, Heritage 0.005-0.4 oz/1000 sq.ft on turf, assessed five days after inoculation): resistant
sensitivity of isolates to azoxystrobin (percent of Pythium-infected turf area) ([1]; all P. aphanidermatum isolates except 99-150, Heritage 0.005-0.4 oz/1000 sq.ft on turf, assessed five days after inoculation): sensitive
response of isolate to azoxystrobin (percentage of infected turf) ([1]; resistant isolate 99-150, rates up to nine times the recommended commercial rate of Heritage (3.6 oz/1000 sq.ft)): did not respond
ED80 values of the sensitive isolates ([1]; sensitive P. aphanidermatum isolates, compared with the established baseline distribution): within the range of ED80 values of the baseline distribution
percentage of infected turf ([1]; sensitive isolate P32R, highest rate of Heritage (3.6 oz/1000 sq.ft)): reduced dramatically
EC95 ([2]; P. viticola K2075 (sensitive baseline isolate)): 0.51
EC95 ([2]; P. viticola isolate 00I112): 11.75
EC95 ([2]; P. viticola isolate 00I116B): 2.84
sensitivity to azoxystrobin in the in planta dose response bioassay ([2]; P. viticola sample I112, compared with the sensitive baseline isolate): reduced sensitivity
sensitivity to azoxystrobin in the in planta dose response bioassay ([2]; P. viticola sample I116B, compared with the sensitive baseline isolate): reduced sensitivity

Pv129S (DNA GTCCCCAAGGCAAAACATAACCCAT; chemistry not given here)
Mut Ct ([3]; mutant (L129) plasmid template, 2×10^6 molecules/ul): 17.22
NTC amplification ([3]; no template (water only) control): None
Wt Ct ([3]; wild type (F129) plasmid template, 2×10^6 molecules/ul): 17.0
